Source: patent US20030064954A1, “Cationic amphiphilic 1,4-dihydropyridine derivatives useful for delivery of nucleotide containing compounds” (priority 2000, published 2003)
“And” between values parts separate entries of the source, which are not always exact repeats. Identical values can stand only once.

Experiments:
[1] = test system: plasmid DNA; assay: DNA condensation/complexation, EtBr displacement assay; assay type: binding
Method: The ability of the cationic amphiphiles to condense DNA was assessed with an EtBr displacement assay. Briefly, in 96 well plates plasmid DNA (0.6 μg per well) was reacted with 0.002% EtBr in 20 mM HEPES—150 mM NaCl buffer, pH 7.4 and fluorescence intensity was measured at 530 nm (excitation) and 590 nm (emission). Intercalation of EtBr molecules between the base pairs of the DNA double helix results in increased fluorescence signal. Immediately thereafter, the cationic liposomes were added to form complexes at different +/−charge ratios and the quenching of fluorescence intensity of EtBr was monitored. Condensation of DNA upon complexation with liposomes results in the displacement of EtBr from DNA and in decreased fluorescence signal. Fluorescence was measured using FL 500 microplate fluorescence reader (Bio-Tek Instruments Inc., Winooski, Vt., USA).
The values are expressed as percentage of the maximum fluorescence signal when EtBr bound to DNA in the absence of an amphiphile. Each data point is from at least triplicate experiment ±S.D.

[2] = test system: CV-1P (African monkey green kidney fibroblasts cells); assay: In vitro transfection of plasmid DNA, β-galactosidase activity per well; assay type: cell-based; settings: CVI-P; for transfection, result in words: entry spans the charge ratios 8-0.5
Method: Transfer of plasmid DNA by various compounds was investigated by using CV-1P (African monkey green kidney fibroblasts cells) and D407 (human retinal pigment epithelial) cells.
The cells were cultured in Dulbecco's modified Eagle's medium (DMEM, Gibco), supplemented with 10% fetal bovine serum (FBS), penicillin/streptomycin (100 units/ml and 100 μg/ml respectively) and 2 mM L-glutamine for D 407 cell line. Cell cultures were maintained at 37° C. in a 7% CO2/air incubator. The cells were collected, counted and seeded in growth medium (100 μl) into 96-well culture plate, 20 000 cells per well. One day later the medium was replaced with fresh medium without serum (150 μl)
In the case of confluent CV1-P cells the medium (with of without serum) was changed on fourth day of cell growth before the transfection.
The complexes at different derivative/DNA charge ratios for transfection procedure were prepared just before use in 50 mM MES—50 mM HEPES—75 mM NaCl buffer, pH 7.2 in separate 96 well plates. One hour after changing the serum-free medium with 10% serum the complexes were added to the cells at […]. Dose of DNA per well was 0.6 μg. After 5 h the complexes were removed, the cells were washed with PBS, and the normal growth medium was added. After 45 h of incubation at 37° C. the cells were lysed with 2% Triton X 100, twice deep frozen and the β-galactosidase activity in each well was determined spectrofotometrically with ELx800 automated microplate reader (Bio-Tex Instruments Inc., Winooski, Vt. USA) by monitoring the hydrolysis of o-nitrophenylgalactopyranoside (oNPG) at 405 nm. Purified β-galactosidase from E.coli was used to construct a standard curve and to calculate […] activity in the transfected cells. […] Transfection efficiencies are given as percentage in comparison to transfection efficiency of Lipofectin^R.

[3] = test system: CVI-P cells; assay: Cytotoxicity of amphiphile/DNA complexes, percentage of survived cells
[4] = test system: D 407 cells; assay: as above; assay type: cell-based, human; design: concentration or dose not given beside the values
[5] = test system: D407 (human retinal pigment epithelial) cells; assay: In vitro transfection of plasmid DNA, β-galactosidase activity per well; assay type: cell-based; settings: D 407
Method: The complexes at different derivative/DNA charge ratios for transfection procedure were prepared just before use in 50 mM MES—50 mM HEPES—75 mM NaCl buffer, pH 7.2 in separate 96 well plates. One hour after changing the serum-free medium with 10% serum the complexes were added to the cells at 370C. Dose of DNA per well was 0.6 μg. After 5 h the complexes were removed, the cells were washed with PBS, and the normal growth medium was added. After 45 h of incubation at 37° C. the cells were lysed with 2% Triton X 100, twice deep frozen and the β-galactosidase activity in each well was determined spectrofotometrically with ELx800 automated microplate reader (Bio-Tex Instruments Inc., Winooski, Vt. USA) by monitoring the hydrolysis of o-nitrophenylgalactopyranoside (oNPG) at 405 nm. Purified β-galactosidase from E.coli was used to construct a standard curve and to calculate 9-galactosidase activity in the transfected cells. […] Transfection efficiencies are given as percentage in comparison to transfection efficiency of Lipofectin^R.

[6] = amphiphile/DNA +/− charge ratio 0.5
[7] = amphiphile/DNA +/− charge ratio 1
[8] = amphiphile/DNA +/− charge ratio 2
[9] = amphiphile/DNA +/− charge ratio 4
[10] = amphiphile/DNA +/− charge ratio 8

| Compound | complexation, percentage of the maximum fluorescence signal when EtBr bound to DNA in the absence of an amphiphile [1, 6] | complexation, percentage of the maximum fluorescence signal when EtBr bound to DNA in the absence of an amphiphile [1, 7] | complexation, percentage of the maximum fluorescence signal when EtBr bound to DNA in the absence of an amphiphile [1, 8] | complexation, percentage of the maximum fluorescence signal when EtBr bound to DNA in the absence of an amphiphile [1, 9] | complexation, percentage of the maximum fluorescence signal when EtBr bound to DNA in the absence of an amphiphile [1, 10] | transfection, result in words [2] | cytotoxicity as a percentage of survived cells [3, 6] | cytotoxicity as a percentage of survived cells [3, 7] | cytotoxicity as a percentage of survived cells [3, 8] | cytotoxicity as a percentage of survived cells [3, 9] | cytotoxicity as a percentage of survived cells [3, 10] | also measured |
| --- | --- | --- | --- | --- | --- | --- | --- | --- | --- | --- | --- | --- |
| CCCCCCCCCCCCCCCCOCCCOC(=O)C1=C(C)NC(C)=C(C(=O)OCCCOCCCCCCCCCCCCCCCC)C1c1ccc[n+](C)c1.[I-] [II] | 92,2% | 85,6% | 77,2% | 74,8% | 72,4% | No signal | 111,42% | 101,24% | 102,9% | 79,08% | 99,23% |  |
| CCCCCCCCCOC(=O)C1=C(C)NC(C)=C(C(=O)OCCCCCCCCC)C1c1ccc[n+](C)c1.I.[I-] [IV, 1′,4′-Dihydro-1,2′,6′-trimethyl-3′,5′-bis(nonyloxycarbonyl)-3,4′-bipyridinium iodide] |  |  |  |  |  | No signal |  |  |  |  |  |  |
| CCCCCCCCCCCCCCCC(=O)OCC(COC(=O)C1=C(C)NC(C)=C(C(=O)OCC(COC(=O)CCCCCCCCCCCCCCC)OC(=O)CCCCCCCCCCCCCCC)C1c1ccc[n+](C)c1)OC(=O)CCCCCCCCCCCCCCC.I.[I-] (stereo not drawn) [IX, 3′,5′-Bis [(2,3-dipalmitoyloxypropoxy)carbonyl]-1′,4′-dihydro-1,2′,6′-trimethyl-3,4′-bipyridinium iodide] | 101,6% and 97,8% | 101,6% and 97,5% | 103,3% and 97,5% | 97,8% and 98,4% | 98,5% and 106,1% | No signal | 83,11% and 90,48% | 84,63% and 107,13% | 97,34% and 120,34% | 106,62% and 117,42% | 100,65% and 124,54% |  |
| CCCCCCCCCCOC(=O)C1=C(C[N+](C)(C)CCCCCCCC)NC(C[N+](C)(C)CCCCCCCC)=C(C(=O)OCCCCCCCCCC)C1c1ccccc1.[Br-].[Br-] [XXVII, N,N′-{[3,5-Bis(decyloxycarbonyl)-1,4-dihydro-4-phenyl-pyridine-2,6-diyl]dimethylene}-N,N,N′,N′-tetramethyl-N,N′-dioctyldiammonium dibromide] |  |  |  |  |  |  | 105,03% | 98,37% | 88,41% | 24,62% | 13,46% | DNA condensing capacity (mark in Table 2) [1]: 23a/XXVII*; transfection efficiency [2, 6]: 0,24 β-galactosidase units per well; transfection efficiency [2, 7]: 1,63 β-galactosidase units per well; transfection efficiency [2, 8]: 36,55 β-galactosidase units per well; transfection efficiency [2, 9]: 21,46 β-galactosidase units per well; transfection efficiency [2, 10]: 3,14 β-galactosidase units per well |
| Br.CCCCCCCCCCCCCCOC(=O)C1=C(C)NC(C)=C(C(=O)OCCCCCCCCCCCCCC)C1c1ccc[n+](CCCC)c1.[Br-] [XXI, 1-Butyl-1′,4′-dihydro-2′,6′-dimethyl-3′,5′-bis(tetradecyloxycarbonyl)-3,4′-bipyridinium bromide] |  |  |  |  |  | No signal |  |  |  |  |  |  |
| CCCCCCCCCCCCCCOC(=O)C1=C(C[n+]2ccccc2)NC(C[n+]2ccccc2)=C(C(=O)OCCCCCCCCCCCCCC)C1c1ccccc1.[Br-].[Br-] [XXIV, 1,1′-{[1,4-Dihydro-4-phenyl-3,5-bis(tetradecyloxycarbonyl)-pyridine-2,6-diyl]dimethylene}bispyridinium dibromide] | 78,91% | 63,92% | 54,5% | 50,0% | 49,62% |  | 96,17% | 98,12% | 86,72% | 88,19% | 48,08% | transfection efficiency [2, 6]: 0,63 β-galactosidase units per well; transfection efficiency [2, 7]: 2,48 β-galactosidase units per well; transfection efficiency [2, 8]: 15,46 β-galactosidase units per well; transfection efficiency [2, 9]: 47,78 β-galactosidase units per well; transfection efficiency [2, 10]: 9,48 β-galactosidase units per well; cytotoxicity as a percentage of survived cells [4, 6]: 97,59%; cytotoxicity as a percentage of survived cells [4, 7]: 88,59%; cytotoxicity as a percentage of survived cells [4, 8]: 98,83%; cytotoxicity as a percentage of survived cells [4, 9]: 86,99%; cytotoxicity as a percentage of survived cells [4, 10]: 51,24%; transfection efficiency [5, 6]: 0,20 β-galactosidase units per well; transfection efficiency [5, 7]: 0,44 β-galactosidase units per well; transfection efficiency [5, 8]: 0,53 β-galactosidase units per well; transfection efficiency [5, 9]: 15,04 β-galactosidase units per well; transfection efficiency [5, 10]: 3,61 β-galactosidase units per well |
| CCCCCCCCC=CCCCCCCCCOC(=O)C1=C(C[n+]2ccccc2)NC(C[n+]2ccccc2)=C(C(=O)OCCCCCCCCC=CCCCCCCCC)C1c1ccccc1.[Br-].[Br-] (stereo not drawn) [XXVI, 1,1′-[(3,5-Dioctadec-9′-enyloxycarbonyl-4-phenyl-1,4-dihydropyridine-2,6-diyl)dimethylene]bispyridinium dibromide] |  |  |  |  |  | No signal |  |  |  |  |  |  |
| CCCCCCCCCCOC(=O)C1=C(C[n+]2ccccc2)NC(C[n+]2ccccc2)=C(C(=O)OCCCCCCCCCC)C1c1ccccc1.[Br-].[Br-] [XXII, 1,1′-{[3,5-Bis(decyloxycarbonyl)-1,4-dihydro-4-phenylpyridine-2,6-diyl]dimethylene}bispyridinium dibromide] | 77,8% | 58,8% | 48,1% | 45,1% | 43,5% | No signal | 95,71% | 87,2% | 84,01% | 78,2% | 46,74% |  |
